The source of these data is patent publication US20220257577A1, “EZH2 INHIBITION IN COMBINATION THERAPIES FOR THE TREATMENT OF CANCERS” (Constellation Pharmaceuticals, Inc., priority 2019, published 2022).

Like-named read-outs stand apart in the source and are kept apart here.

The target in assay [1] is wild-type EZH2-containing PRC2 complex (Homo sapiens, UniProt Q15910). Particulars: see PCT/US2019/027932, read-out: half-maximal inhibitory concentration (IC50), catalytic activity; cited from earlier work.
Assay [2] relates to H3K27me3 in 639V bladder cancer cell line. The assay can be described thus: Global H3K27me3 intracellular levels, 639V. Type of assay: cell-based. Particulars: Homo sapiens, 72 h, Day 3, read-out: EC50, reduction of global H3K27me3 levels.
Assay [3] concerns H3K27me3 in HeLa (wild-type EZH2-containing cervical cancer cell line). The conditions noted are these: after 4 days of treatment, see PCT/US2019/027932, read-out: EC50, reduction of global H3K27me3 levels; cited from earlier work.
The test system of assay [4] is H3K27me3 in ovarian cancer TOV21G cell line. In words: Global H3K27me3 intracellular levels, TOV21G. Type of assay: cell-based. Particulars: Homo sapiens, 72 h, Day 3, read-out: EC50, reduction of global H3K27me3 levels.
The target in assay [5] is T1, EZH2 (PRC2) (Homo sapiens, UniProt Q15910). Particulars: binding to PRC2 complex, see PCT/US2019/027932, cited from earlier work.
Assay [6] deals with HT1376 (bladder cancer) cell lines, HT1376-DMF and HT1376-CR. In words: Antiproliferative activity in HT1376 bladder cancer cell lines. The conditions noted are these: cisplatin resistant HT1376-CR versus age-matched DMF control HT1376-DMF; FIG. 1A/1B. Type of assay: cell-based. On the procedure: (§1) Data shown are mean cell viability±standard error of the mean (SEM), n=2-3 and are representative of duplicate independent experiments.
(§2) Representative of duplicate independent experiments; mean±SD shown.
(§3) The sensitivity of multiple solid tumor cancer cell lines to the antiproliferative activity of Compound 1 with and without cisplatin was evaluated. […] Combination treatment with Compound 1 and cisplatin, however, led to greater than 50% reduction in growth.

Assay [7] addresses EZH1-containing PRC2 complex (Homo sapiens, UniProt Q92800). Particulars: see PCT/US2019/027932, read-out: half-maximal inhibitory concentration (IC50), catalytic activity; cited from earlier work.
Assay [8] relates to H3K27me3 in HT1197 bladder cancer cell line. In words: Global H3K27me3 intracellular levels, HT1197. Type of assay: cell-based. Particulars: Homo sapiens, 72 h; HT1197, Day 3; read-out: EC50, reduction of global H3K27me3 levels.
Assay [9] relates to gene expression in bladder cancer cell lines. The assay can be described thus: RNA-sequencing of bladder cancer cell lines. Type of assay: cell-based. Particulars: treatment for 4 days. From the text:
Reduction in H3K27me3 levels result in changes in gene expression. RNA-sequencing of bladder cancer cell lines after treatment with Compound 1 for 4 days results in significant changes in the expression levels of multiple genes. […] The increase in gene expression is both dose and time dependent, with increasing expression observed at higher concentrations of Compound 1 and at later timepoints. This contrasts with reductions of H3K27me3 as methyl mark changes were observed after 1 day of Compound 1 treatment. […] See Yang X, Karuturi R K, Sun F, et al. CDKN1C (p57) is a direct target of EZH2 and suppressed by multiple epigenetic mechanisms in breast cancer cells. PLoS One. 2009; 4(4):e5011. Low expression of CDKN1C is seen in advanced bladder and breast cancers and is correlated with poor prognosis. See Yang above and Hoffmann M J, Florl A R, Seifert H H, et al. Multiple mechanisms downregulate CDKN1C in human bladder cancer. Int J Cancer. 2005 Apr. 10; 114(3):406-13.

In assay [10] the target is Y641N mutant EZH2-containing PRC2 complex (Homo sapiens, UniProt Q15910, Y641N). The conditions noted are these: see PCT/US2019/027932, read-out: half-maximal inhibitory concentration (IC50), catalytic activity; cited from earlier work.
Assay [11] deals with A2780 (ovarian cancer) cell lines, A2780-P and A2780-CR. In words: Antiproliferative activity in A2780 ovarian cancer cell lines. Type of assay: cell-based. Particulars: cisplatin resistant A2780-CR versus parental A2780-P; FIG. 1A/1B. How it is done: as §1, §2, §3
The target of assay [12] is T1, EZH2 (PRC2). The assay can be described thus: Kinetic assays characterising binding to PRC2. The conditions noted are these: from kinetic assays. On the procedure:
In biochemical assays, Compound 1 suppresses catalytic activity of wild-type and Y641N mutant EZH2-containing PRC2 complex, as well as EZH1-containing PRC2 complex, with half-maximal inhibitory concentrations (IC50) values of 0.02 and 0.03 nM for wild-type and Y641N mutant EZH2, respectively, and 0.06 nM for EZH1. See e.g., PCT/US2019/027932. […] Based-upon the kinetic analysis it was determined that Compound 1 binds to PRC2 with a long residence time (approximately 101 days). See e.g., PCT/US2019/027932.

A further assay deals with HT1376 tumors. In words: Antitumor effect in HT1376 tumors. Type of assay: in vivo. The conditions noted are these: HT1376 tumors in CB17 SCID mice; FIG. 4. From the text: FIG. 4 illustrates the antitumor effect of Compound 1, cisplatin, and the combination of both in HT1376 tumors in CB17 SCID mice. Data shown are mean tumor size±SEM, n=6. PO=oral administration, IV=intravenous administration, QD=once per day, QW=once per week.

T1 sequence (Q15910 whole entry): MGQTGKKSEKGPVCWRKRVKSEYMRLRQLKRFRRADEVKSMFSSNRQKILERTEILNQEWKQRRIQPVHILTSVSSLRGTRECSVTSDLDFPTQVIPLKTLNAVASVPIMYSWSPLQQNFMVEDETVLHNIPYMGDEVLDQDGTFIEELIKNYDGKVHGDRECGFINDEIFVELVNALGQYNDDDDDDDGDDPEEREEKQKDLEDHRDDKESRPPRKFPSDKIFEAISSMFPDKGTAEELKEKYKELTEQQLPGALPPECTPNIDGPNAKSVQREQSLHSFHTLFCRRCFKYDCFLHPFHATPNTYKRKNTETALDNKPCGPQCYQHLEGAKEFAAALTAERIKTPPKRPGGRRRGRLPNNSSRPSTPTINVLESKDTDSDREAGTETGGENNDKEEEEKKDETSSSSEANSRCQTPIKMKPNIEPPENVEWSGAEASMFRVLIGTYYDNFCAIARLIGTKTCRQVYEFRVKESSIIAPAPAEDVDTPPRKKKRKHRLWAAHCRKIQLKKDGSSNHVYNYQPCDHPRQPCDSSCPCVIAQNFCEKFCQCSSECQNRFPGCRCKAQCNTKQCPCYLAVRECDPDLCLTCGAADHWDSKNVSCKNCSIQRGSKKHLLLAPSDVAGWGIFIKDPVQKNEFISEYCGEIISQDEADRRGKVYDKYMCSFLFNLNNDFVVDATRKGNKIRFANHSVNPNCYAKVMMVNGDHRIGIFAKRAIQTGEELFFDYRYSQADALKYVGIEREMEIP
T1 sequence (O75530 whole entry partner): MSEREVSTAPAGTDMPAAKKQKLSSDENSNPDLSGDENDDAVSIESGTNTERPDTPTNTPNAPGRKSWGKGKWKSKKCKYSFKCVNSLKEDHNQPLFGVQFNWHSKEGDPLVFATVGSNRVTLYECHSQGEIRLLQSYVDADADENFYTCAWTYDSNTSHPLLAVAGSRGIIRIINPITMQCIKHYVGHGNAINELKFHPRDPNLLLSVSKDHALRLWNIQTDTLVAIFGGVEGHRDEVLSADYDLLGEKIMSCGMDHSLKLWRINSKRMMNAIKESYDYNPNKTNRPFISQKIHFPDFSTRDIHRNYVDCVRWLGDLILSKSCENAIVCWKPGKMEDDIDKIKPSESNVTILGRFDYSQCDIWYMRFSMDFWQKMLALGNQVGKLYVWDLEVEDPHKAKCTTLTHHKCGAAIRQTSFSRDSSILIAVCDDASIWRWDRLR
T1 sequence (Q15022 whole entry partner): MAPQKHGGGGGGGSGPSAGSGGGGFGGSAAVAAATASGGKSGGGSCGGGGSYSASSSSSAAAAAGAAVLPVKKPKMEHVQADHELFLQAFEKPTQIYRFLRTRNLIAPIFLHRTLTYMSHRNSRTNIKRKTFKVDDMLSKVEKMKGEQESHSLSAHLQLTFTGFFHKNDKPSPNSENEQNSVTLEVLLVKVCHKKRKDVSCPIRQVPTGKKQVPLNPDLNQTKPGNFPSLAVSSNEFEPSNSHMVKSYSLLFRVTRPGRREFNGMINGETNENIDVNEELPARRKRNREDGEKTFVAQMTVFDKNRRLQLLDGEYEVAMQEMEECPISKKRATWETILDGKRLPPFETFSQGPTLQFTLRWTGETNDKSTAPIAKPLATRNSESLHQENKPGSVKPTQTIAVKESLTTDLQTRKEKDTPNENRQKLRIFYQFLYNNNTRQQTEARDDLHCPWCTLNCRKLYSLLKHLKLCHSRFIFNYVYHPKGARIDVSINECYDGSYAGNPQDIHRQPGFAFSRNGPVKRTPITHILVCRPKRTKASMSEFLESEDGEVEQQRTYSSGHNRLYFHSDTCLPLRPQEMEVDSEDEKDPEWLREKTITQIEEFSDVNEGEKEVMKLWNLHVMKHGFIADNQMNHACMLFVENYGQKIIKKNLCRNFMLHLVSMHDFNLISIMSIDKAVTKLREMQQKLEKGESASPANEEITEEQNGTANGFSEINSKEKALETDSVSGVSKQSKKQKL
T1 sequence (Q09028 whole entry partner): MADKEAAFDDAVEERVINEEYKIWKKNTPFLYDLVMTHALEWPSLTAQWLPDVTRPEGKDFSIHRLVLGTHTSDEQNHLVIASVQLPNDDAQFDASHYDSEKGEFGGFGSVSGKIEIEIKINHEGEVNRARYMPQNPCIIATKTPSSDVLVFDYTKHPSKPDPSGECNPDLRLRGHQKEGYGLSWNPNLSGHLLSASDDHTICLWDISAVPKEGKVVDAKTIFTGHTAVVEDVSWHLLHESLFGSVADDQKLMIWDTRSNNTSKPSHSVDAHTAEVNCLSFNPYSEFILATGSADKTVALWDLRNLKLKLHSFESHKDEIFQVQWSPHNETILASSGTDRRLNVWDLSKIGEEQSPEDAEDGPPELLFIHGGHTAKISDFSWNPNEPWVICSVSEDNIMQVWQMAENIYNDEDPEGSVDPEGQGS
Sequence of wild-type EZH2-containing PRC2 complex (Q15910 whole entry): as the sequence (Q15910 whole entry) above
Sequence of wild-type EZH2-containing PRC2 complex (O75530 whole entry partner): as the sequence (O75530 whole entry partner) above
Sequence of wild-type EZH2-containing PRC2 complex (Q15022 whole entry partner): as the sequence (Q15022 whole entry partner) above
Sequence of wild-type EZH2-containing PRC2 complex (Q09028 whole entry partner): as the sequence (Q09028 whole entry partner) above
Sequence of EZH1-containing PRC2 complex (Q92800 whole entry): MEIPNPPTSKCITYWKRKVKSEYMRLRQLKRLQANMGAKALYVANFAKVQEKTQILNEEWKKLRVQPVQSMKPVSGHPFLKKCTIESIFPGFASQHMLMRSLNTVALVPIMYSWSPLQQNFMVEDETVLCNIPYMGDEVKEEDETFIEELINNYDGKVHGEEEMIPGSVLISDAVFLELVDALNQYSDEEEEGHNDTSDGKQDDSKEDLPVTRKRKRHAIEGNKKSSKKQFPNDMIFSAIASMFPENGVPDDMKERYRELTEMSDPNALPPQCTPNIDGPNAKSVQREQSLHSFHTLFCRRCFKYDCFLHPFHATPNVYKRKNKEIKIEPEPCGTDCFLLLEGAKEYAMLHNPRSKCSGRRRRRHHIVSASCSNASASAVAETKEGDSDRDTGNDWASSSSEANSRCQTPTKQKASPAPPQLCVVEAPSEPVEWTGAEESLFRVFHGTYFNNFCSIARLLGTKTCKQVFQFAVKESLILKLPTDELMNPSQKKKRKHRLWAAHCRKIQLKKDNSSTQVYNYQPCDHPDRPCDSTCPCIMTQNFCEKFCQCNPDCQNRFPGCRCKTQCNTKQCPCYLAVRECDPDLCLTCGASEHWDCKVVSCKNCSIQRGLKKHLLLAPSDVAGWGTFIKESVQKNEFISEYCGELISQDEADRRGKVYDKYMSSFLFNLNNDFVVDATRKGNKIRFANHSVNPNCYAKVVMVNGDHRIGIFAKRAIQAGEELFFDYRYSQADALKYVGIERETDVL
Sequence of EZH1-containing PRC2 complex (O75530 whole entry partner): as the sequence (O75530 whole entry partner) above
Sequence of EZH1-containing PRC2 complex (Q15022 whole entry partner): as the sequence (Q15022 whole entry partner) above
Sequence of EZH1-containing PRC2 complex (Q09028 whole entry partner): as the sequence (Q09028 whole entry partner) above
Sequence of Y641N mutant EZH2-containing PRC2 complex (Q15910 whole entry Y641N): as the sequence (Q15910 whole entry) above, with Y641N counted along it
Sequence of Y641N mutant EZH2-containing PRC2 complex (O75530 whole entry partner): as the sequence (O75530 whole entry partner) above
Sequence of Y641N mutant EZH2-containing PRC2 complex (Q15022 whole entry partner): as the sequence (Q15022 whole entry partner) above
Sequence of Y641N mutant EZH2-containing PRC2 complex (Q09028 whole entry partner): as the sequence (Q09028 whole entry partner) above

As usually defined, the EC50 is the concentration at which the effect is half-maximal. Regarding `COC1CN(C2CCC(C3(C)Oc4c(Cl)cc(C(=O)NCc5c(SC)cc(C)[nH]c5=O)c(C)c4O3)CC2)C1` (single isomer, unassigned) [Compound 1, 7-chloro-2-(4-(3-methoxyazetidin-1-yl)cyclohexyl)-2,4-dimethyl-N-((6-methyl-4-(methylthio)-2-oxo-1,2-dihydropyridin-3-yl)methyl)benzo[d][1,3]dioxole-5-carboxamide], the IC50 in assay [1] is 0.02 nM; in [7] it was 0.06 nM; in assay [10], 0.03 nM. For the same compound, the EC50 in [2] is 0.09 nM; in [3], 0.4 nM; in [4], 0.26 nM; in [8], 0.14 nM. The residence time entry on EZH2 (PRC2) [5] was “approximately 101 days”; at EZH2 (PRC2) [5] (listed as 7-chloro-2-(4-(3-methoxyazetidin-1-yl)cyclohexyl)-2,4-dimethyl-N-(6-methyl-4-(m))) it was around 101 days. The “sensitivity (cell viability) to single treatment” value in [6] and in assay [11] was “strongly sensitive” in each case. Also, the “CDKN1C (p57, Kip2) gene expression” value in assay [9] is on record as “highly upregulated”. Also, on EZH2 (PRC2) [12], the “selectivity for EZH2 over EZH1” value is recorded as “approximately 70 fold”. Also, in the assay on HT1376 tumors, the tumor growth entry was “effective in reducing tumor growth”.

As to `N.N.[Cl][Pt][Cl]` [cisplatin, reference compound], the “sensitivity (cell viability) to single treatment” value in [6] and in assay [11] was “less sensitive” each time.
